US12595253B2, “Benzamides of pyrazolylamino-pyrimidinyl derivatives, and compositions and methods thereof” (LYNK PHARMACEUTICALS CO. LTD., priority 2019, dated 2026)
pIC50: −log10 of the molar value.

How the values were obtained:
JAK2V617F = target: T1, JAK2V617F (Homo sapiens, UniProt O60674, V617F); assay: JAK2V617F microfluidic kinase assay (Caliper EZ Reader II, FAM labeled peptide substrate); type: biochemical; conditions: JAK2V617F 2.5 nM, 1 mM ATP
T1 construct: purchased Carna Biosciences
T1 sequence (O60674 whole entry V617F): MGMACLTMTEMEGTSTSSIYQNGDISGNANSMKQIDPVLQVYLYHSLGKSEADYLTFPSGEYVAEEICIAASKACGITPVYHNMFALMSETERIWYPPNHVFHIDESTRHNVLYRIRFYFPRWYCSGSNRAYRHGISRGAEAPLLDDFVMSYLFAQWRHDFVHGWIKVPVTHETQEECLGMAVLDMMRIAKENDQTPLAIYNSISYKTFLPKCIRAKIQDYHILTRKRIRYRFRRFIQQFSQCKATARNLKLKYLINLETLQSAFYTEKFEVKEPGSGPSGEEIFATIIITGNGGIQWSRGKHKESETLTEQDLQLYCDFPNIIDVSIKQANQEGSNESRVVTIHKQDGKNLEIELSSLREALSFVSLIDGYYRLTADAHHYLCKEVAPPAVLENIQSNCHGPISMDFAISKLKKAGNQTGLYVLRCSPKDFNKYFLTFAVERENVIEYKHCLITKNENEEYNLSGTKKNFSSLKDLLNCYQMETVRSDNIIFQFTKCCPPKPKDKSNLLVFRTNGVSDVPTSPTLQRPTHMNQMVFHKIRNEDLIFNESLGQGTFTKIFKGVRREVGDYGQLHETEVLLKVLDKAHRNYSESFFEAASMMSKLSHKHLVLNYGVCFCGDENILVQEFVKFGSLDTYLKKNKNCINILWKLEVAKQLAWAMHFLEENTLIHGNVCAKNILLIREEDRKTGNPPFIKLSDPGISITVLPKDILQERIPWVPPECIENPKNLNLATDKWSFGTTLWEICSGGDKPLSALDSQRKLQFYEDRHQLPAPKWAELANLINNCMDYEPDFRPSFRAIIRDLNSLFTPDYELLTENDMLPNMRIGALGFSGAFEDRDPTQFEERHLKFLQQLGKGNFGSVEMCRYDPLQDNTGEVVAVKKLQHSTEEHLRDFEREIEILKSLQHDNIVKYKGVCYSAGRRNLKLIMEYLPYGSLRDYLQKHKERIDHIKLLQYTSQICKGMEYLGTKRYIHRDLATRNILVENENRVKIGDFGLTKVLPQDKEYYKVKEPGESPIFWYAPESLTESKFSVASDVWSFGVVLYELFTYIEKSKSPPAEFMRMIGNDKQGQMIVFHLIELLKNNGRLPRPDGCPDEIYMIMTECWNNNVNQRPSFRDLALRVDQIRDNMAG
Protocol: (§1) Compounds were tested against JAK1, JAK2, JAK2V617F and TYK2. Assay Formats: JAK activity was determined in the reaction buffer 50 mM HEPES, 0.01% Brij35, 10 mM MgCl2, 2 mM DTT by a microfluidic assay. The phosphorylation of a FAM labeled peptide substrate was monitored in the Caliper EZ Reader II (Perkin Elmer). The assay condition for each batch of enzyme (Carna Biosciences) was optimized to obtain 10% conversion rate of peptide substrate. The test compounds were dissolved in DMSO to a stock concentration of 10 mM. 3-fold serially diluted compounds with top concentration of 5 μM were pre-incubated with JAK1, JAK2, JAK2V617F or TYK2 at indicated concentrations for 10 min at ambient temperature. The final DMSO concentration of assay mixture was 1%. […] The reaction was stopped by adding 50 mM EDTA. […] The percent inhibition was calculated by the following formula. % Inhibition=(Conversionmax−Conversionsample)/(Conversionmax−Conversionmin)*100 • Conversionmax means the conversion rate in the positive well without addition of compound • Conversionmin means the conversion rate in the well without addition of enzyme • Conversionsample means the conversion rate of test compounds The dose-response (percent inhibition) curve was plotted and IC50 values were determined by GraphPad software.

JAK1 = target: T2, JAK1 (Homo sapiens, UniProt P23458); assay: JAK1 microfluidic kinase assay (Caliper EZ Reader II, FAM labeled peptide substrate); type: biochemical; conditions: IC50 JAK1 (5 nM) (1 m MATP), JAK1 5 nM, 1 mM ATP
T2 construct: purchased Carna Biosciences
T2 sequence (P23458 whole entry): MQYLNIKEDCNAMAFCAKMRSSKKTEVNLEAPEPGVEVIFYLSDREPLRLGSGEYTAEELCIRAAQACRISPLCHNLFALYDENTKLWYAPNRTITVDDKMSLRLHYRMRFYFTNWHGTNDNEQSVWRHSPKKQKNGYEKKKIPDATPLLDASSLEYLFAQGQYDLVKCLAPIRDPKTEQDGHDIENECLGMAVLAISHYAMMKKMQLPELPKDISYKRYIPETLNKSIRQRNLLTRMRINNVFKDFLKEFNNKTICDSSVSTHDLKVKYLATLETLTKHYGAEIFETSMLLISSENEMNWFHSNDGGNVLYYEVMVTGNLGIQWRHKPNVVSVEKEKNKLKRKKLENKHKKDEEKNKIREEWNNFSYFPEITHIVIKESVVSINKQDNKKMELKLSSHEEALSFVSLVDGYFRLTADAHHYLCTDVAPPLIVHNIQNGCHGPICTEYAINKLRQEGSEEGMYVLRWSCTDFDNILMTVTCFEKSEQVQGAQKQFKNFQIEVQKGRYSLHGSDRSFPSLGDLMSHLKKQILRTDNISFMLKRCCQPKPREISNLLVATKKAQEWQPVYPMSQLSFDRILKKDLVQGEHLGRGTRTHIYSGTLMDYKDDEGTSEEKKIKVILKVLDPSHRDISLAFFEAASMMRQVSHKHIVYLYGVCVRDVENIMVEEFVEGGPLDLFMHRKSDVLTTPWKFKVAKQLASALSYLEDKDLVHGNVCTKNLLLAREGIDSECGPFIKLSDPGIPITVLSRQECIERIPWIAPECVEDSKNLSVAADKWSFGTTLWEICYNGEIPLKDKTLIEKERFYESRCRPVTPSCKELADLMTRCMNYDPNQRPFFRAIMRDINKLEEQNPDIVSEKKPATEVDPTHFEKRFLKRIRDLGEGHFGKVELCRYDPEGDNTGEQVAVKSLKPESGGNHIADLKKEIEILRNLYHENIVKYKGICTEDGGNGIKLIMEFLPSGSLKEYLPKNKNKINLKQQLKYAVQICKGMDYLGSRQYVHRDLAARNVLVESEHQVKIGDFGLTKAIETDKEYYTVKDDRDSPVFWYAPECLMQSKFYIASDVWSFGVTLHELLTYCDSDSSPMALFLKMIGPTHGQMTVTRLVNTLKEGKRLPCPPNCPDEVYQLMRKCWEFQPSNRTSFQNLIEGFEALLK
Protocol: as §1

| pIC50 (JAK2V617F) | pIC50 (JAK1) | SMILES |
| --- | --- | --- |
| 8.38 | 7.84 | Cc1cnc(Nc2cnn(C3CCN(C(=O)C4(O)CC4)CC3)c2)nc1-c1ccc(C(=O)NCC#N)cc1 [Example 74, N-(cyanomethyl)-4-(2-((1-(1-(1-hydroxycyclopropanecarbonyl)piperidin-4-yl)-1H-pyrazol-4-yl)amino)-5-methylpyrimidin-4-yl)benzamide] |
| 8.34 | 7.56 | Cc1cnc(Nc2cnn(C3CC4CCC(C3)N4C(=O)C3(C)CC3)c2)nc1-c1ccc(C(=O)NCC#N)cc1 [Example 65, N-(cyanomethyl)-4-(5-methyl-2-((1-((1R,3r,5S)-8-(1-methylcyclopropanecarbonyl)-8-azabicyclo[3.2.1]octan-3-yl)-1H-pyrazol-4-yl)amino)pyrimidin-4-yl)benzamide] |
| 8.52 | 8.65 | CC[C@@H](C#N)NC(=O)c1ccc(-c2nc(Nc3cnn(C4CCOCC4)c3)ncc2C)cc1 [Example 201, (S)—N-(1-cyanopropyl)-4-(5-methyl-2-((1-(tetrahydro-2H-pyran-4-yl)-1H-pyrazol-4-yl)amino)pyrimidin-4-yl)benzamide] |
| 7.46 | 7.86 | Cc1cnc(Nc2cnn([C@H]3CC[C@@H](C#N)CC3)c2)nc1-c1ccc(C(=O)NCC#N)cc1 [Example 148, 4-(2-((1-(Cis-4-cyanocyclohexyl)-1H-pyrazol-4-yl)amino)-5-methylpyrimidin-4-yl)-N-(cyanomethyl)benzamide] |
| 7.66 | 7.84 | Cc1cnc(Nc2cnn(C3C[C@H]4CC[C@@H](C3)O4)c2)nc1-c1ccc(C(=O)NCC#N)cc1 (stereo partly drawn) [Example 69, 4-(2-((1-((1R,5S)-8-oxabicyclo[3.2.1]octan-3-yl)-1H-pyrazol-4-yl)amino)-5-methylpyrimidin-4-yl)-N-(cyanomethyl)benzamide] |
| 7.48 | 7.65 | CC(=O)N1CC(n2cc(Nc3ncc(C)c(-c4ccc(C(=O)N[C@@H](C)C#N)cc4)n3)cn2)C1 [Example 157] |
| 6.26 | 6.82 | N#CCNC(=O)c1ccc(-c2nc(Nc3cnn(C4CC4)c3)ncc2C(F)F)cc1 [Example 110, N-(cyanomethyl)-4-(2-((1-cyclopropyl-1H-pyrazol-4-yl)amino)-5-(difluoromethyl)pyrimidin-4-yl)benzamide] |
| 7.12 | 7.36 | Cc1cnc(Nc2cnn(C3CCOCC3)c2)nc1-c1ccc(C(=O)NCCC(F)(F)F)cc1 [Example 77, 4-(5-Methyl-2-((1-(tetrahydro-2H-pyran-4-yl)-1H-pyrazol-4-yl)amino)pyrimidin-4-yl)-N-(3,3,3-trifluoropropyl)benzamide] |
| 7.45 | 7.72 | Cc1cnc(Nc2cnn(C3CCOCC3)c2)nc1-c1ccc(C(=O)NCC(C)(C)C#N)cc1 [Example 133, N-(2-cyano-2-methylpropyl)-4-(5-methyl-2-((1-(tetrahydro-2H-pyran-4-yl)-1H-pyrazol-4-yl)amino)pyrimidin-4-yl)benzamide] |
| 5.72 | 6.32 | Cc1cnc(Nc2cnn(C3CC(F)(F)C3)c2)nc1-c1ccc(C(=O)N[C@@H](C)C#N)cc1 [Example 155, (S)—N-(1-cyanoethyl)-4-(2-((1-(3,3-difluorocyclobutyl)-1H-pyrazol-4-yl)amino)-5-methylpyrimidin-4-yl)benzamide] |
| 8.16 | 8.13 | Cc1cnc(Nc2cnn(C3CCOCC3)c2)nc1-c1ccc(C(=O)NCC(F)(F)F)cc1 [Example 76, 4-(5-Methyl-2-((1-(tetrahydro-2H-pyran-4-yl)-1H-pyrazol-4-yl)amino)pyrimidin-4-yl)-N-(2,2,2-trifluoroethyl)benzamide] |
| 8.51 | 8.30 | CC[C@@H](C#N)NC(=O)c1ccc(-c2nc(Nc3cnn(C4CCOCC4)c3)ncc2Cl)cc1 [Example 203, (S)-4-(5-chloro-2-((1-(tetrahydro-2H-pyran-4-yl)-1H-pyrazol-4-yl)amino)pyrimidin-4-yl)-N-(1-cyanopropyl)benzamide] |
| 7.39 | 7.47 | Cc1cnc(Nc2cnn(C3CC4CCC(C3)N4C(=O)C3CC3)c2)nc1-c1ccc(C(=O)NCC#N)cc1 [Example 64, N-(cyanomethyl)-4-(2-((1-((1R,3r,5S)-8-(cyclopropanecarbonyl)-8-azabicyclo[3.2.1]octan-3-yl)-1H-pyrazol-4-yl)amino)-5-methylpyrimidin-4-yl)benzamide] |
| 7.07 | 7.29 | Cc1cnc(Nc2cnn(C3CCOCC3)c2)nc1-c1ccc(C(=O)N[C@H](C)C#N)cc1 [Example 96, (R)—N-(1-cyanoethyl)-4-(5-methyl-2-((1-(tetrahydro-2H-pyran-4-yl)-1H-pyrazol-4-yl)amino)pyrimidin-4-yl)benzamide] |
| 7.85 | 7.87 | N#CCNC(=O)c1ccc(-c2nc(Nc3cnn(C4CCOCC4)c3)ncc2Cl)cc1 [Example 146, 4-(5-chloro-2-((1-(tetrahydro-2H-pyran-4-yl)-1H-pyrazol-4-yl)amino)pyrimidin-4-yl)-N-(cyanomethyl)benzamide] |
| 6.07 | 6.53 | C[C@H](C#N)NC(=O)c1ccc(-c2nc(Nc3cnn(C4CCN(C)CC4)c3)ncc2F)cc1 [Example 63, (R)—N-(1-Cyanoethyl)-4-(5-fluoro-2-((1-(1-methylpiperidin-4-yl)-1H-pyrazol-4-yl)amino)pyrimidin-4-yl)benzamide] |
| 7.52 | 7.82 | Cc1cnc(Nc2cnn([C@H]3CC[C@@H](C#N)CC3)c2)nc1-c1ccc(C(=O)N[C@@H](C)C#N)cc1 [Example 149, 4-(2-((1-(Cis-4-cyanocyclohexyl)-1H-pyrazol-4-yl)amino)-5-methylpyrimidin-4-yl)-N—((S)-1-cyanoethyl)benzamide] |
| 7.70 | 7.97 | Cc1cnc(Nc2cnn([C@H]3CC[C@H](C#N)CC3)c2)nc1-c1ccc(C(=O)NCC#N)cc1 [Example 147, 4-(2-((1-(Trans-4-cyanocyclohexyl)-1H-pyrazol-4-yl)amino)-5-methylpyrimidin-4-yl)-N-(cyanomethyl)benzamide] |
| 7.62 | 8.53 | CCC[C@@H](C#N)NC(=O)c1ccc(-c2nc(Nc3cnn(C4CC4)c3)ncc2C)cc1 [Example 202, (S)—N-(1-cyanobutyl)-4-(2-((1-cyclopropyl-1H-pyrazol-4-yl)amino)-5-methylpyrimidin-4-yl)benzamide] |
| 7.88 | 7.96 | Cc1cnc(Nc2cnn(C3CCC(F)(F)CC3)c2)nc1-c1ccc(C(=O)NCC#N)cc1 [Example 84, N-(cyanomethyl)-4-(2-((1-(4,4-difluorocyclohexyl)-1H-pyrazol-4-yl)amino)-5-methylpyrimidin-4-yl)benzamide] |
| 7.57 | 7.77 | Cc1cnc(Nc2cnn(C3CCCOC3)c2)nc1-c1ccc(C(=O)NCC#N)cc1 (stereo not drawn) [Example 67, N-(cyanomethyl)-4-(5-methyl-2-((1-(tetrahydro-2H-pyran-3-yl)-1H-pyrazol-4-yl)amino)pyrimidin-4-yl)benzamide] |
| 7.37 | 8.82 | CC[C@@H](C#N)NC(=O)c1ccc(-c2nc(Nc3cnn(C4CC4)c3)ncc2C)cc1 [Example 193, (S)—N-(1-cyanopropyl)-4-(2-((1-cyclopropyl-1H-pyrazol-4-yl)amino)-5-methylpyrimidin-4-yl)benzamide] |
| 6.55 | 6.63 | N#CCNC(=O)c1ccc(-c2nc(Nc3cnn(C4CCOCC4)c3)ncc2C(F)(F)F)cc1 [Example 153, N-(cyanomethyl)-4-(2-((1-(tetrahydro-2H-pyran-4-yl)-1H-pyrazol-4-yl)amino)-5-(trifluoromethyl)pyrimidin-4-yl)benzamide] |
| 7.37 | 7.59 | Cc1cnc(Nc2cnn(C3CN(C(=O)C4CC4)C3)c2)nc1-c1ccc(C(=O)N[C@@H](C)C#N)cc1 [Example 71, (S)—N-(1-cyanoethyl)-4-(2-((1-(1-(cyclopropanecarbonyl)azetidin-3-yl)-1H-pyrazol-4-yl)amino)-5-methylpyrimidin-4-yl)benzamide] |
| 6.61 | 7.17 | C[C@@H](C#N)NC(=O)c1ccc(-c2nc(Nc3cnn(C4CC4)c3)ncc2Cl)cn1 [Example 121, (S)-5-(5-chloro-2-((1-cyclopropyl-1H-pyrazol-4-yl)amino)pyrimidin-4-yl)-N-(1-cyanoethyl)picolinamide] |
| 8.66 | 7.95 | Cc1cnc(Nc2cnn(C3CCC(F)(F)CC3)c2)nc1-c1ccc(C(=O)N[C@@H](C)C#N)cc1 [Example 85, (S)—N-(1-cyanoethyl)-4-(2-((1-(4,4-difluorocyclohexyl)-1H-pyrazol-4-yl)amino)-5-methylpyrimidin-4-yl)benzamide] |
| 7.47 | 7.55 | Cc1cnc(Nc2cnn(C3CCOC(C)C3)c2)nc1-c1ccc(C(=O)NCC#N)cc1 (stereo not drawn) [Example 72, N-(cyanomethyl)-4-(5-methyl-2-((1-(2-methyltetrahydro-2H-pyran-4-yl)-1H-pyrazol-4-yl)amino)pyrimidin-4-yl)benzamide] |
